Results published in ChEMBL document CHEMBL5096181, “Isoxazole derivatives as anticancer agent: A review on synthetic strategies, mechanism of action and SAR studies” (Eur J Med Chem, 2021).
In brackets after ≈: the same amount, converted by molar mass. One block for each compound: values may come before it.

What was measured:
Huh-7 = test: Cytotoxicity against human Huh-7 cells assessed as cell growth inhibition and measured after 72 hrs by SRB assay; type: functional, cell-based; settings: Huh-7, 72 h
Mahlavu = test: Cytotoxicity against human Mahlavu cells assessed as cell growth inhibition and measured after 72 hrs by SRB assay; type: functional, cell-based
MCF7 [1] = test: Cytotoxicity against human MCF7 cells assessed as cell growth inhibition and measured after 72 hrs by SRB assay; type: functional, cell-based; settings: MCF7, 72 h
DU-145 = test: Cytotoxicity against human DU-145 cells assessed as inhibition of cell growth by MTT assay; type: functional, cell-based
MCF7 [2] = test: Anticancer activity against human MCF7 cells assessed as inhibition of cell proliferation measured after 4 hrs by MTT assay; type: functional, cell-based; settings: MCF7, 4 h
LNCaP = test: Antiproliferative activity against human LNCaP cells assessed as cell growth inhibition by MTT assay; type: functional, cell-based
PC-3 = test: Antiproliferative activity against human PC-3 cells assessed as cell growth inhibition by MTT assay; type: functional, cell-based
LNCaP C4-2B = test: Antiproliferative activity against human LNCaP C4-2B cells assessed as cell growth inhibition by MTT assay; type: functional, cell-based
CWR22R = test: Antiproliferative activity against human 22Rv1 cells assessed as cell growth inhibition by MTT assay; type: functional, cell-based
Tubulin [3] = test: Inhibition of tubulin polymerization (unknown origin) by spectrophotometer based analysis; type: protein-complex assay, Homo sapiens
MCF7 [4] = test: Cytotoxicity against human MCF7 cells assessed as cell growth inhibition by MTT assay; type: functional, cell-based
[5] = target: T1, Tyrosine-protein phosphatase non-receptor type 1 (Homo sapiens, UniProt P18031); test: Inhibition of PTP1B (unknown origin) by SpectraMax 340 microplate reader Analysis
T1 sequence (P18031 whole entry): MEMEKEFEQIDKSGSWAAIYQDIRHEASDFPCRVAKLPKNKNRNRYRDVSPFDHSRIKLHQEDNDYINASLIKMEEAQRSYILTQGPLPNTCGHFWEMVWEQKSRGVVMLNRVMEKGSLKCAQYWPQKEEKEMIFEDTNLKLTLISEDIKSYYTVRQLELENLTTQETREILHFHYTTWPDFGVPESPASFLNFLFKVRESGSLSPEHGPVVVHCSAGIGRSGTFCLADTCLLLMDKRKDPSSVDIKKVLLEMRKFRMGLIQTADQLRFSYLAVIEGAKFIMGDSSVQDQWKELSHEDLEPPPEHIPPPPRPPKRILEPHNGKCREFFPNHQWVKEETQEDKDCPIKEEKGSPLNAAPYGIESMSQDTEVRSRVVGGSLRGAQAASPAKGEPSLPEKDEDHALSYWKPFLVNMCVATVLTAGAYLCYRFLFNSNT

[6] = target: T2, Tyrosine-protein phosphatase non-receptor type 2 (Homo sapiens, UniProt P17706); test: Inhibition of TCPTP (unknown origin) by SpectraMax 340 microplate reader Analysis
T2 sequence (P17706 whole entry): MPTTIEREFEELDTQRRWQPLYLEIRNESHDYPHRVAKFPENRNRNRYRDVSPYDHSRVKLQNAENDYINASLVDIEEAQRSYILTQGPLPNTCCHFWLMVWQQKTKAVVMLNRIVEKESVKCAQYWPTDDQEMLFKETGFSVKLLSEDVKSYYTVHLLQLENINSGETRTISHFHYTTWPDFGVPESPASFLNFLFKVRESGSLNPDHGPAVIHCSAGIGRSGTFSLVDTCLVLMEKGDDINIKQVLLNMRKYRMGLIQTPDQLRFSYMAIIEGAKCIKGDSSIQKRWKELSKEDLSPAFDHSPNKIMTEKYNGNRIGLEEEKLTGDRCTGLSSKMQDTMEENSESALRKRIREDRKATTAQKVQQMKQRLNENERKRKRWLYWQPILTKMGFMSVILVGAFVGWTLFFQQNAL

Estrogen receptor = target: T3, Estrogen receptor (Homo sapiens, UniProt P03372); test: Inhibition of ERalpha (unknown origin) in MCF7 cells measured after 24 to 48 hrs by FRET assay; type: cell-based
T3 sequence (P03372 whole entry): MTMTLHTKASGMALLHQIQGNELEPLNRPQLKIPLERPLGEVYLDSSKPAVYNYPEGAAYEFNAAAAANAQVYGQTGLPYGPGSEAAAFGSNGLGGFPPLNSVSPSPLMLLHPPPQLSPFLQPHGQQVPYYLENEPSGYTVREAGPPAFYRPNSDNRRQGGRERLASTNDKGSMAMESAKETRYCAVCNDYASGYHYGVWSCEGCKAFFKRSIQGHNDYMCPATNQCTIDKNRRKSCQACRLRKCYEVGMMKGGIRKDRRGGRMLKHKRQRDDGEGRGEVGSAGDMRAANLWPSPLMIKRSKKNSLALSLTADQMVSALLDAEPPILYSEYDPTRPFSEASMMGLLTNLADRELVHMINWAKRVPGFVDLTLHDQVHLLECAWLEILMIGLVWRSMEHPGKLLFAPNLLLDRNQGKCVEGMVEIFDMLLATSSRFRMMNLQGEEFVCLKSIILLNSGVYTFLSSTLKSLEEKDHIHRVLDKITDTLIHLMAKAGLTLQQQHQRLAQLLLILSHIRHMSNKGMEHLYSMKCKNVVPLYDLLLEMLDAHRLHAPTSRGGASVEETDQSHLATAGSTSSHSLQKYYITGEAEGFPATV

MCF7R = test: Cytotoxicity against human MCF7R cells assessed as cell growth inhibition and by MTT assay; type: functional, cell-based
Tubulin [7] = target: Tubulin (Sus scrofa, UniProt P02554+P02550); test: Inhibition of pig brain tubulin polymerization by spectrometric method
MCF7 [8] = test: Induction of apoptosis in human MCF7 cells assessed as early apoptosis cells at 2.0 uM measured after 24 hrs by annexin-V-FITC and PI staining based flow cytometry analysis (reference value: 0.486%); type: functional
MCF7 [9] = test: Induction of apoptosis in human MCF7 cells assessed as late apoptosis cells at 2.0 uM measured after 24 hrs by annexin-V-FITC and PI staining based flow cytometry analysis (reference value: 0.529%); type: functional
Aromatase = target: T4, Aromatase (Homo sapiens, UniProt P11511); test: Inhibition of human recombinant aromatase expressed in baculovirus insect cell using 7-methoxy-trifluoromethyl coumarin (MFC) as substrate preincubated for 10 mins followed by substrate addition and measured for 30 mins by fluorescence based assay
T4 sequence (P11511 whole entry): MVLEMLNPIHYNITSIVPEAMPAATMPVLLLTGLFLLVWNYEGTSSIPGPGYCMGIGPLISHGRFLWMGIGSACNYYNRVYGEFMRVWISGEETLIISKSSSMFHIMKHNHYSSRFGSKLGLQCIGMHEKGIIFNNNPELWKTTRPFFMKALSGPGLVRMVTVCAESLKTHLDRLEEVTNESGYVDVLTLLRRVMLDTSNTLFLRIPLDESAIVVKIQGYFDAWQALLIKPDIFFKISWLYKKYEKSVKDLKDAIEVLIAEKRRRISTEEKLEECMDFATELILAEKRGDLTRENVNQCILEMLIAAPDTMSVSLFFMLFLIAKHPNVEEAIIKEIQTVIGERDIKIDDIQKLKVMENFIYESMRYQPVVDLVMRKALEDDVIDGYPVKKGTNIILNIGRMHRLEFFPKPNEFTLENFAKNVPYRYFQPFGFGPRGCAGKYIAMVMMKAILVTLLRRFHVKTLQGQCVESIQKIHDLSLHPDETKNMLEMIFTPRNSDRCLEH

SMILES: Cc1ccc(-c2cc(N3CCN(Cc4ccc(C(F)(F)F)cc4)CC3)no2)cc1
IC50 (Huh-7): 24 µM | IC50 (Mahlavu): > 40 µM | IC50 (MCF7 [1]): 9.4 µM

SMILES: COc1ccc(C2CC(c3ccno3)=NN2C(N)=O)cc1OC (stereo not given)
IC50 (DU-145): 4 µg/mL (≈ 12.6 µM)

IC50 (MCF7 [2]): 10 µM
SMILES: COc1ccc(-c2oncc2-c2ccccc2Cl)c2ccccc12

IC50 (LNCaP): 4.31 µM | IC50 (PC-3): 2.81 µM | IC50 (LNCaP C4-2B): 2.04 µM | IC50 (Tubulin [3]): 2.87 µM
SMILES: COc1cc(N(Cc2c(C)noc2C)C(=O)CSc2nc3ccccc3s2)cc(OC)c1OC
IC50 (CWR22R): 2.13 µM

SMILES: Nc1nn(Cc2cc(-c3cccc(C(F)(F)F)c3)no2)c2nc(-c3cccs3)cc(C(F)(F)F)c12
IC50 (MCF7 [4]): 13.4 µM

SMILES: COc1cccc(-c2cc(Cn3nc(N)c4c(C(F)(F)F)cc(-c5cccs5)nc43)on2)c1
IC50 (MCF7 [4]): 19.4 µM

SMILES: Fc1ccc(-c2cc(N3CCN(Cc4ccc(C(F)(F)F)cc4)CC3)no2)cc1
IC50 (Huh-7): 5.3 µM | IC50 (Mahlavu): 6.2 µM | IC50 (MCF7 [1]): 11.9 µM

SMILES: Cc1cc(COc2ccc(-c3cc(N4CCN(Cc5ccc(C(F)(F)F)cc5)CC4)no3)cc2)n(C)n1
IC50 (Huh-7): 0.3 µM | IC50 (Mahlavu): 3.7 µM | IC50 (MCF7 [1]): 1.2 µM

SMILES: CS(=O)(=O)c1ccc(-c2cc(N3CCN(Cc4ccc(C(F)(F)F)cc4)CC3)no2)cc1
IC50 (Huh-7): 4.2 µM | IC50 (Mahlavu): 26 µM | IC50 (MCF7 [1]): 2.9 µM

IC50 [5]: 5.37 µM | IC50 [6]: 7.58 µM
SMILES: O=C(O)c1cccc(/C=C/c2ccc(Oc3cnoc3-c3cccc(Cl)c3)cc2)c1

IC50 (Estrogen receptor): 91.1 µM
SMILES: COc1onc(-c2ccc(O)cc2)c1-c1oc2ccccc2c(=O)c1O

IC50 [5]: 2.05 µM | IC50 [6]: 13.2 µM
SMILES: O=C(O)c1cccc(/C=C/c2ccc(Oc3cnoc3-c3cccc([N+](=O)[O-])c3)cc2)c1

SMILES: O=S(=O)(Nc1ccc(-c2cn[nH]c2)cc1)c1ccc(Cl)cc1
IC50 (MCF7 [1]): 50 µM

SMILES: CCCOc1ccc(-c2cc(N3CCN(Cc4ccc(C(F)(F)F)cc4)CC3)no2)cc1
IC50 (Huh-7): 8.8 µM | IC50 (Mahlavu): 7.7 µM | IC50 (MCF7 [1]): 4.9 µM

SMILES: COc1ccc(/C=C/c2cc(/C=C/c3ccc(O)c(OC)c3)no2)cc1O
IC50 (MCF7R): 12 µM | IC50 (MCF7 [4]): 13.1 µM

IC50 (MCF7 [2]): 1.23 µM | IC50 (Tubulin [7]): 3.4 µM
SMILES: CCOc1ccc(-c2cnoc2-c2ccc(OC)c3ccccc23)cc1
inhibition at 2 µM (MCF7 [8]): 15.3% | inhibition at 2 µM (MCF7 [9]): 6.44%

IC50 [5]: 1.75 µM | IC50 [6]: 36.2 µM
SMILES: O=C(O)c1cccc(/C=C/c2ccc(Oc3cnoc3-c3ccccc3Cl)cc2)c1

SMILES: COc1ccc(C2CC(c3ccno3)=NN2C(N)=O)c(F)c1OC (stereo not given)
IC50 (DU-145): 2 µg/mL (≈ 5.98 µM)

IC50 (Aromatase): 0.0023 µM
SMILES: Cc1c(-c2nocc2C(=O)SC#N)c(=O)n(-c2ccccc2)n1C
